According to BindingDB's records for doi:10.1016/j.bioorg.2015.10.005 (Hazara University, 2015):

These molecules were tested against Urease subunit alpha (Sporosarcina pasteurii, UniProt P41020) (assay: Urease Inhibition Assay). Conditions: pH 7.
Description: This assay was modified from Berthelot assay and was employed for the determination of urease activity. The assay is based on the hydrolysis of urea into ammonia which reacts with phenol-hypochlorite to form light blue colored complex measured at 625 nm. A total volume of 85 µl assay mixture contained 10 µl of 50 mM phosphate buffer, pH 7.0, 10 µl of sample solution and 25 µl of Bacillus pasteurii urease (Sigma) solution (0.015 units). The contents were pre-incubated at 37 °C for 10 min. Then, 40 µl of urea stock solution (20 mM) was added to each well and incubation continued at 37 °C for further 10 min and preread at 625 nm using the 96-well plate reader Synergy HT (Biotek Inc.). Phenol hypochlorite (115 µl) reagent was added in each well (freshly prepared by mixing 45 µl phenol reagent with 70 µl of alkali reagent). For color development, incubation was done at 37 °C for another 10 min. Absorbance was again measured at 625 nm.

Sequence of Urease subunit alpha (P41020 as listed by the source): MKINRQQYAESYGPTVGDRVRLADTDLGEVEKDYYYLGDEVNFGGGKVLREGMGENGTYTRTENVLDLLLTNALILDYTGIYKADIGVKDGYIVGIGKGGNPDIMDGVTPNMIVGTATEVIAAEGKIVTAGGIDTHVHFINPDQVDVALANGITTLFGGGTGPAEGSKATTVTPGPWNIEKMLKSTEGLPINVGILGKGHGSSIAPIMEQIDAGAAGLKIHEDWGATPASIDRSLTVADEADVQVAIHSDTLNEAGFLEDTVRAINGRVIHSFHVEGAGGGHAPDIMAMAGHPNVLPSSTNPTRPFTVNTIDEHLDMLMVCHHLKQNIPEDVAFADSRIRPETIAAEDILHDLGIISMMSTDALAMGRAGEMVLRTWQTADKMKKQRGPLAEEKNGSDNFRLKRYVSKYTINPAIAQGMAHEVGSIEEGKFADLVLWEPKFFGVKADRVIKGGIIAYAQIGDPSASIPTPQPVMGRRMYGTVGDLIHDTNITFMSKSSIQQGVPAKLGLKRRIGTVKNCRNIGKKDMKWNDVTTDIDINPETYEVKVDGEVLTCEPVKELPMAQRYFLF

IC50 [µM]	SMILES
26.9	O=C1CSC(N/N=C/c2ccc([N+](=O)[O-])cc2)=N1 [(E)-2((E)-(4-Nitrobenzylidene)hydrazono)thiazolidine-4-one (2)]
69.6	COc1ccc(/C=N\N=C2/NC(=O)CS2)c(OC)c1 [(Z)-2-((Z)-(2,4-Dimethoxybenzoylidine)hydrazono)thiazolidine-4-one (18)]
26.7	O=C1CS/C(=N/N=C/c2cc(Cl)cc(Cl)c2O)N1 [(E)-2-((E)-(3,5-Dichloro-2-hydroxybenzylidene)hydrazono)thiazolidin-4-one (5)]
47.5	O=C1CS/C(=N/N=C/c2ccccc2[N+](=O)[O-])N1 [(E)-2-((E)-(2-Nitrobenzylidene)hydrazono)thiazolidin-4-one (1)]
14.6	O=C1CS/C(=N/N=C\c2ccc(O)cc2)N1 [(E)-2((E)-(4-Hydroxybenzylidin)hydrazono)thiazolidine-4-one (6)]
52.5	COc1cccc(/C=N/N=C2\NC(=O)CS2)c1OC [(E)-2-((E)-(2,3-Dimethoxybenzylidene)hydrazono)thiazolidin-4-one (4)]
9.34	O=C1CS/C(=N/N=C\c2ccc(O)c(Cl)c2)N1 [(E)-2-((E)-(3-Chloro-4-hydroxybenzylideno)thiazolidin-4-one (3)]
8.43	O=C1CS/C(=N/N=C/c2cccc([N+](=O)[O-])c2)N1 [(E)-2((E)-(3-nitrobenzylidene)hydrazono)thiazolidin-4-one (8)]
2.31	C/C(=N/N=C1\NC(=O)CS1)c1ccc([N+](=O)[O-])cc1Br [(Z)-2-((Z)-(1-(2-Bromo-4-nitrophenyl)ethylidene)hydrazono)thiazolidine-4-one (15)]
5.75	CCOc1ccc(/C=N\N=C2/NC(=O)CS2)cc1OC [(Z)-2-((Z)-(4-Ethoxy-3-methoxybenzoylidine)hydrazono)thiazolidine-4-one (17)]
51.4	O=C1CS/C(=N/N=C\C2C=Nc3ccccc32)N1 (centres undefined) [(E)-2-(E)-((1H-Indole-3-yl)methylene)hydrazono)thiazolidine-4-one (16)]
36.6	COc1cc(/C=N/N=C2\NC(=O)CS2)cc(Br)c1OC [(E)-2((E)-(3-Bromo-4,5-dimethoxybenzylidene)hydrazono) thiazolidine-4-one (7)]
37.9	COc1cc(/C=N/N=C2\NC(=O)CS2)cc(OC)c1O [(E)-2-((E)-(4-Hyrazoxy-3,5-dimethoxybenzylidene)hydrazono)thiazolidin-4-one (9)]

SMILES	IC50 [µM]
NC(N)=S [thiocarbamide]	21.2
